In PubChem BioAssay AID1259407 (Chemical Carcinogenesis Research Information System (CCRIS), 2018):
Activity calls are given as the source filed them. No rule for the calls is given here.

Test system: CCRIS mutagenicity, Ames/micronucleus/aberration tests
Assay: CCRIS mutagenicity studies
[1] = Test System: AMES SALMONELLA TYPHIMURIUM, Strain/Indicator: TA98, Metabolic Activation: NONE, Method: PREINCUBATION
[2] = Test System: AMES SALMONELLA TYPHIMURIUM, Strain/Indicator: TA100, Metabolic Activation: NONE, Method: PREINCUBATION
[3] = Test System: AMES SALMONELLA TYPHIMURIUM, Strain/Indicator: TA98, Metabolic Activation: NONE, Method: STANDARD PLATE
[4] = Test System: AMES SALMONELLA TYPHIMURIUM, Strain/Indicator: TA100, Metabolic Activation: NONE, Method: STANDARD PLATE

## O[C@H]1C=Cc2c(ccc3cc4c(ccc5ccccc54)cc23)[C@@H]1O
Test System: AMES SALMONELLA TYPHIMURIUM, Strain/Indicator: TA100, Metabolic Activation: RAT, LIVER, S-9, AROCLOR 1254, Method: STANDARD PLATE
  mutagenic call: active; positive

## NC(Cc1ccc(F)cc1)C(=O)O (centres undefined)
Test System: AMES SALMONELLA TYPHIMURIUM, Strain/Indicator: TA98, Metabolic Activation: HAMSTER, LIVER, S-9, AROCLOR 1254 (10%), Method: PREINCUBATION
  mutagenic call: inactive; negative
[1]
  mutagenic call: inactive; negative
Test System: AMES SALMONELLA TYPHIMURIUM, Strain/Indicator: TA98, Metabolic Activation: RAT, LIVER, S-9, AROCLOR 1254 (10%), Method: PREINCUBATION
  mutagenic call: inactive; negative
Test System: AMES SALMONELLA TYPHIMURIUM, Strain/Indicator: TA100, Metabolic Activation: HAMSTER, LIVER, S-9, AROCLOR 1254 (10%), Method: PREINCUBATION
  mutagenic call: inactive; negative
[2]
  mutagenic call: inactive; negative
Test System: AMES SALMONELLA TYPHIMURIUM, Strain/Indicator: TA100, Metabolic Activation: RAT, LIVER, S-9, AROCLOR 1254 (10%), Method: PREINCUBATION
  mutagenic call: inactive; negative
Test System: AMES SALMONELLA TYPHIMURIUM, Strain/Indicator: TA1535, Metabolic Activation: HAMSTER, LIVER, S-9, AROCLOR 1254 (10%), Method: PREINCUBATION
  mutagenic call: inactive; negative
Test System: AMES SALMONELLA TYPHIMURIUM, Strain/Indicator: TA1535, Metabolic Activation: NONE, Method: PREINCUBATION
  mutagenic call: inactive; negative
Test System: AMES SALMONELLA TYPHIMURIUM, Strain/Indicator: TA1535, Metabolic Activation: RAT, LIVER, S-9, AROCLOR 1254 (10%), Method: PREINCUBATION
  mutagenic call: inactive; negative
Test System: AMES SALMONELLA TYPHIMURIUM, Strain/Indicator: TA1537, Metabolic Activation: HAMSTER, LIVER, S-9, AROCLOR 1254 (10%), Method: PREINCUBATION
  mutagenic call: inactive; negative
Test System: AMES SALMONELLA TYPHIMURIUM, Strain/Indicator: TA1537, Metabolic Activation: NONE, Method: PREINCUBATION
  mutagenic call: inactive; negative
Test System: AMES SALMONELLA TYPHIMURIUM, Strain/Indicator: TA1537, Metabolic Activation: RAT, LIVER, S-9, AROCLOR 1254 (10%), Method: PREINCUBATION
  mutagenic call: inactive; negative

## CCC(CCOCn1cc[n+](C)c1/C=N/O)[N+](=O)[O-] (centres undefined)
Test System: AMES SALMONELLA TYPHIMURIUM, Strain/Indicator: TA97, Metabolic Activation: NONE, Method: STANDARD PLATE
  mutagenic call: inactive; negative
Test System: AMES SALMONELLA TYPHIMURIUM, Strain/Indicator: TA97, Metabolic Activation: S-9, Method: STANDARD PLATE
  mutagenic call: inactive; negative
[3]
  mutagenic call: inactive; negative
Test System: AMES SALMONELLA TYPHIMURIUM, Strain/Indicator: TA98, Metabolic Activation: S-9, Method: STANDARD PLATE
  mutagenic call: inactive; negative
[4]
  mutagenic call: inactive; negative
Test System: AMES SALMONELLA TYPHIMURIUM, Strain/Indicator: TA100, Metabolic Activation: S-9, Method: STANDARD PLATE
  mutagenic call: inactive; negative
Test System: AMES SALMONELLA TYPHIMURIUM, Strain/Indicator: TA104, Metabolic Activation: NONE, Method: STANDARD PLATE
  mutagenic call: inactive; negative
Test System: AMES SALMONELLA TYPHIMURIUM, Strain/Indicator: TA104, Metabolic Activation: S-9, Method: STANDARD PLATE
  mutagenic call: inactive; negative
Test System: AMES SALMONELLA TYPHIMURIUM, Strain/Indicator: TA1535, Metabolic Activation: NONE, Method: STANDARD PLATE
  mutagenic call: inactive; negative
Test System: AMES SALMONELLA TYPHIMURIUM, Strain/Indicator: TA1535, Metabolic Activation: S-9, Method: STANDARD PLATE
  mutagenic call: inactive; negative
Test System: AMES SALMONELLA TYPHIMURIUM, Strain/Indicator: TA1537, Metabolic Activation: NONE, Method: STANDARD PLATE
  mutagenic call: inactive; negative
Test System: AMES SALMONELLA TYPHIMURIUM, Strain/Indicator: TA1537, Metabolic Activation: S-9, Method: STANDARD PLATE
  mutagenic call: inactive; negative
Test System: AMES SALMONELLA TYPHIMURIUM, Strain/Indicator: TA1538, Metabolic Activation: NONE, Method: STANDARD PLATE
  mutagenic call: inactive; negative
Test System: AMES SALMONELLA TYPHIMURIUM, Strain/Indicator: TA1538, Metabolic Activation: S-9, Method: STANDARD PLATE
  mutagenic call: inactive; negative

## BrCc1ccc2cccc3c2c1-c1ccccc1-3
[3]
  mutagenic call: active; positive
[4]
  mutagenic call: active; positive

## Nc1cccc2c1-c1ccccc1C2
Test System: AMES SALMONELLA TYPHIMURIUM, Strain/Indicator: TA98, Metabolic Activation: RAT, LIVER, S-9, AROCLOR 1254 (2 OR 4%), Method: STANDARD PLATE
  mutagenic call: active; positive
Test System: AMES SALMONELLA TYPHIMURIUM, Strain/Indicator: TA100, Metabolic Activation: RAT, LIVER, S-9, AROCLOR 1254 (2%), Method: STANDARD PLATE
  mutagenic call: active; positive
Test System: AMES SALMONELLA TYPHIMURIUM, Strain/Indicator: TA1535, Metabolic Activation: RAT, LIVER, S-9, AROCLOR 1254 (2%), Method: STANDARD PLATE
  mutagenic call: inactive; negative
Test System: AMES SALMONELLA TYPHIMURIUM, Strain/Indicator: TA1537, Metabolic Activation: RAT, LIVER, S-9, AROCLOR 1254 (2%), Method: STANDARD PLATE
  mutagenic call: inactive; negative

## CC(C)(C)c1ccc(C(=O)ON(OCc2ccccc2)C(=O)c2ccccc2)cc1
[4]
  mutagenic call: active; positive

## CC(=O)Oc1ccc2c(CBr)cc(=O)oc2c1
[1]
  mutagenic call: inactive; negative
Test System: AMES SALMONELLA TYPHIMURIUM, Strain/Indicator: TA98, Metabolic Activation: RAT, LIVER, S-9, PCB, Method: PREINCUBATION
  mutagenic call: inactive; negative
[2]
  mutagenic call: inactive; negative
Test System: AMES SALMONELLA TYPHIMURIUM, Strain/Indicator: TA100, Metabolic Activation: RAT, LIVER, S-9, PCB, Method: PREINCUBATION
  mutagenic call: inactive; negative
Test System: E. COLI, Strain/Indicator: WP2 UVRA, Metabolic Activation: NONE, Method: PREINCUBATION
  mutagenic call: inactive; negative
